Data from ChEMBL document CHEMBL1135800, “Carbonic anhydrase inhibitors: anticonvulsant sulfonamides incorporating valproyl and other lipophilic moieties” (J Med Chem, 2002).

Experiments:
Carbonic anhydrase 1 = Carbonic anhydrase 1 (Homo sapiens, UniProt P00915)
Description: Inhibitory effect on human carbonic anhydrase I

Carbonic anhydrase 4 = target: T1, Carbonic anhydrase 4 (Bos taurus, UniProt Q95323)
T1 sequence (Q95323 whole entry): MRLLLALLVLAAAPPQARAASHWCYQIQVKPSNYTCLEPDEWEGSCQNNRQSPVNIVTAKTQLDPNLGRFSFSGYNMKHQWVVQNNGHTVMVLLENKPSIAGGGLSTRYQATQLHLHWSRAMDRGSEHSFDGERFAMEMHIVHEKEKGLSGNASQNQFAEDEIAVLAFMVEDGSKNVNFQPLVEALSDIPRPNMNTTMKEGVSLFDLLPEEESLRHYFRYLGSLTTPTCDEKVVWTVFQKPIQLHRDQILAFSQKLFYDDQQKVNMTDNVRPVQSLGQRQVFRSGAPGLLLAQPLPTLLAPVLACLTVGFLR
Description: Inhibitory effect on bovine Carbonic anhydrase IV

Carbonic anhydrase 2 = Carbonic anhydrase 2 (Homo sapiens, UniProt P00918)
Description: Inhibitory effect on human Carbonic anhydrase II

Mus musculus [1] = experiment: Anticonvulsant activity in mice by MES test at 0.5 hr following intraperitoneal injection of 10 mg/kg dose.; format: functional
Mus musculus [2] = experiment: Anticonvulsant activity in mice by MES test at 0.5 hr following intraperitoneal injection of 30 mg/kg dose; format: functional
Mus musculus [3] = experiment: Anticonvulsant activity in mice by MES test at 3.0 hr following intraperitoneal injection of 10 mg/kg dose.; format: functional
Mus musculus [4] = experiment: Anticonvulsant activity in mice by MES test at 3.0 hr following intraperitoneal injection of 30 mg/kg dose.; format: functional
Mus musculus [5] = organism: Mus musculus; experiment: MES test: number of mice treated / total number of mice at 3.0 h; format: functional
Mus musculus [6] = organism: Mus musculus; experiment: MES test: number of mice treated / total number of mice at 1.0 h; format: functional
Mus musculus [7] = organism: Mus musculus; experiment: MES test: number of mice treated / total number of mice at 2.0 h; format: functional
Mus musculus [8] = experiment: Anticonvulsant activity in mice by MES test at 3.0 hr following intraperitoneal injection of 30 mg/kg dose; format: functional
Mus musculus [9] = organism: Mus musculus; experiment: MES test: number of mice treated / total number of mice at 0.5 h; format: functional
[10] = Activity in MES test with six to eight OFI male mice for each time at 30 mg/kg dose at 6.0 h; format: functional, Mus musculus
[11] = Activity in MES test with six to eight OFI male mice for each time at 30 mg/kg dose at 3.0 h; format: functional, Mus musculus
Mus musculus [12] = organism: Mus musculus; experiment: MES test: number of mice treated / total number of mice 6.0 h; format: functional
Mus musculus [13] = experiment: Anticonvulsant activity in mice by MES test at 3.0 hr following intraperitoneal injection of 10 mg/kg dose; format: functional
Mus musculus [14] = organism: Mus musculus; experiment: MES test: number of mice treated / total number of mice 4.0 h; format: functional
[15] = Activity in MES test with six to eight OFI male mice for each time at 30 mg/kg dose at 4.0 h; format: functional, Mus musculus
Mus musculus [16] = experiment: Anticonvulsant activity in mice by MES test at 0.5 hr following intraperitoneal injection of 10 mg/kg dose; format: functional
[17] = Activity in MES test with six to eight OFI male mice for each time at 30 mg/kg dose at 1.0 h; format: functional, Mus musculus
[18] = Activity in MES test with six to eight OFI male mice for each time at 30 mg/kg dose at 0.5 h; format: functional, Mus musculus
[19] = Activity in MES test with six to eight OFI male mice for each time at 30 mg/kg dose at 2.0 h; format: functional, Mus musculus
Mus musculus [20] = experiment: Anticonvulsant activity in mice by MES test at 0.5 h following intraperitoneal injection of 30 mg/kg dose.; format: functional
Mus musculus [21] = experiment: Anticonvulsant activity in mice by MES test at 3.0 h following intraperitoneal injection of 30 mg/kg dose; format: functional

Carbonic anhydrase 1, sequence (P00915 whole entry): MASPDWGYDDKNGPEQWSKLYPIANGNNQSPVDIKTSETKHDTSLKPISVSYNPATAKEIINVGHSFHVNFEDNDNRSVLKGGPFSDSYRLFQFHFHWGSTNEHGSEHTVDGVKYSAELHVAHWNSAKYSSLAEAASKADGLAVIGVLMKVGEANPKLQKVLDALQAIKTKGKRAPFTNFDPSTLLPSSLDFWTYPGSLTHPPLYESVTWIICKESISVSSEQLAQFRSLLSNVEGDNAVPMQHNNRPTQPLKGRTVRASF

| SMILES | Ki (Carbonic anhydrase 1) [nM] | Ki (Carbonic anhydrase 4) [nM] | Ki (Carbonic anhydrase 2) [nM] | Protected mice (Mus musculus [4]) [%] | also measured |
| --- | --- | --- | --- | --- | --- |
| Cc1ccc(S(=O)(=O)Nc2nnc(S(N)(=O)=O)s2)cc1 | 5 | 3 | 4 | 75 | Protected mice (Mus musculus [1]): 12%; Protected mice (Mus musculus [2]): 92%; Protected mice (Mus musculus [3]): 62% |
| CCCC(CCC)C(=O)Nc1ccc(S(N)(=O)=O)cc1F | 1000 | 110 | 45 |  |  |
| Cc1ccc(S(=O)(=O)NC(=O)Nc2nnc(S(N)(=O)=O)s2)cc1 | 3 | 12 | 4 | 33 | Protected mice (Mus musculus [20]): 8% |
| CCCC(CCC)C(=O)NNc1ccc(S(N)(=O)=O)cc1 | 35600 | 950 | 300 |  |  |
| CCCC(CCC)C(=O)NCc1ccc(S(N)(=O)=O)cc1 | 3700 | 210 | 96 |  |  |
| CC(C)(C)OC(=O)Nc1nnc(S(N)(=O)=O)s1 | 460 | 130 | 9 | 60 | Protected mice (Mus musculus [20]): 75% |
| NS(=O)(=O)c1nnc(NS(=O)(=O)Cc2ccccc2)s1 | 7 | 6 | 5 | 38 | Protected mice (Mus musculus [20]): 67% |
| CCCC(CCC)C(=O)NCCc1ccc(S(N)(=O)=O)cc1 | 3500 | 200 | 84 |  |  |
| NS(=O)(=O)c1nnc(NS(=O)(=O)c2ccc(NC(=O)[C@@H]3C4C=CC(C4)C3C(=O)O)cc2)s1 (stereo partly drawn) | 5.5 | 4 | 1.5 | 33 | Protected mice (Mus musculus [20]): 25% |
| COc1cc(C(=O)Nc2nnc(S(N)(=O)=O)s2)cc(OC)c1OC | 900 | 51 | 10 | 67 | Protected mice (Mus musculus [2]): 25% |
| CC1(C)O[C@@H]2[C@@H](CO[C@@]3(COS(N)(=O)=O)OC(C)(C)O[C@@H]23)O1 [TOPIRAMATE] |  | 54 |  |  | Protected mice (Mus musculus [2]): 100%; Protected mice (Mus musculus [13]): 50%; Protected mice (Mus musculus [21]): 83%; Protected mice (Mus musculus [16]): 62% |
| CC(=O)/N=c1/sc(S(N)(=O)=O)nn1C [METHAZOLAMIDE] |  |  |  | 100 | Protected mice (Mus musculus [20]): 83%; Protected mice (Mus musculus [1]): 75%; Protected mice (Mus musculus [3]): 88% |
| CCCC(CCC)C(=O)Nc1cc(Cl)c(S(N)(=O)=O)cc1S(N)(=O)=O | 800 | 133 | 70 |  |  |
| CCCC(CCC)C(=O)OCCc1ccc(S(N)(=O)=O)cc1 | 1300 | 313 | 844 |  |  |
| CCCC(CCC)C(=O)Nc1c(S(N)(=O)=O)cc(S(N)(=O)=O)c(Cl)c1Cl | 970 | 155 | 26 |  |  |
| CCCC(CCC)C(=O)OCc1ccc(S(N)(=O)=O)cc1 | 1500 | 333 | 115 |  |  |
| NS(=O)(=O)c1nnc(NC(=O)CCNS(=O)(=O)c2ccc(I)cc2)s1 | 260 | 120 | 1.2 |  | Protected mice (Mus musculus [8]): 25%; Protected mice (Mus musculus [20]): 33% |
| NS(=O)(=O)c1nnc(NC(=O)C23C[C@H]4C[C@@H](C2)C[C@@H](C3)C4)s1 | 850 | 65 |  | 96 | Protected mice (Mus musculus [20]): 83%; Protected mice (Mus musculus [1]): 25%; Protected mice (Mus musculus [3]): 93% |
| NS(=O)(=O)c1nnc(NC(=O)c2ccccc2)s1 | 38 | 21 |  | 25 | Protected mice (Mus musculus [20]): 83% |
| CC(C)(C)C(=O)Nc1nnc(S(N)(=O)=O)s1 | 110 | 46 |  | 100 | Protected mice (Mus musculus [1]): 44%; Protected mice (Mus musculus [2]): 75%; Protected mice (Mus musculus [3]): 87% |

Second part, led by results:

| Ki (Carbonic anhydrase 1) [nM] | Ki (Carbonic anhydrase 4) [nM] | Ki (Carbonic anhydrase 2) [nM] | SMILES | Protected mice (Mus musculus [4]) [%] | also measured |
| --- | --- | --- | --- | --- | --- |
| 50 | 25 | 6 | CCCC(CCC)C(=O)Nc1nnc(S(N)(=O)=O)s1 |  | No. of mice (Mus musculus [5]): 7; No. of mice (Mus musculus [6]): 6.5; No. of mice (Mus musculus [7]): 8; Protected mice (Mus musculus [8]): 93%; No. of mice (Mus musculus [9]): 7.5; Protected mice [10]: 63%; Protected mice [11]: 93%; No. of mice (Mus musculus [12]): 5; Protected mice (Mus musculus [2]): 96%; Protected mice (Mus musculus [13]): 100%; No. of mice (Mus musculus [14]): 4; Protected mice [15]: 50%; Protected mice (Mus musculus [16]): 25%; Protected mice [17]: 81%; Protected mice [18]: 96%; Protected mice [19]: 100% |
| 23000 | 950 | 255 | CCCC(CCC)C(=O)Nc1ccccc1S(N)(=O)=O |  |  |
| 600 | 49 | 36 | CCCC(CCC)C(=O)Nc1ccc(S(N)(=O)=O)cc1Br |  |  |
| 50 | 15 | 7 | CCCC(CCC)C(=O)Oc1ccc2nc(S(N)(=O)=O)sc2c1 |  |  |
| 62 | 16 | 7 | CCCC(CCC)C(=O)Nc1ccc2nc(S(N)(=O)=O)sc2c1 |  |  |
| 70 | 42 | 10 | CCCC(CCC)C(=O)/N=c1/sc(S(N)(=O)=O)nn1C |  |  |
| 50 | 13 | 7 | CCCC(CCC)C(=O)OCCOc1ccc2nc(S(N)(=O)=O)sc2c1 |  |  |
| 360 | 76 | 9 | CCCC(CCC)C(=O)NCCC(=O)Nc1nnc(S(N)(=O)=O)s1 |  |  |
| 550 | 85 | 43 | CCCC(CCC)C(=O)Nc1ccc(S(N)(=O)=O)cc1I |  |  |
| 19000 | 740 | 221 | CCCC(CCC)C(=O)Nc1cccc(S(N)(=O)=O)c1 |  |  |
| 950 | 125 | 50 | CCCC(CCC)C(=O)Nc1ccc(S(N)(=O)=O)cc1Cl |  |  |
| 22500 | 630 | 240 | CCCC(CCC)C(=O)Nc1ccc(S(N)(=O)=O)cc1 |  |  |
